# Test results: patent US20110071094A1, “(D)-ALLOSE INDUCING PROGRAMMED CELL DEATH IN HORMONE REFRACTORY PROSTATE CANCER LINES” (INDUSTRY-ACADEMIC COOPERATION FOUDATION, GYEONGSANG …, priority 2008, published 2011)
# How the values were obtained:
# Format in all cases: cell-based, human
# [1] = test system: Bax mRNA; test: RT-PCR of Bax mRNA in DU145; conditions: DU145, 72 h, 0, 20 and 40 mM; relative to reduced Bcl-2 mRNA
# Method: To identify the relative levels of expression of Bcl-2, Bax and Caspase 3 mRNAs after 0, 20 and 40 mM of D-allose treatments for 72 h, RT-PCR was performed. DU145 cell line (1×10^6 cells in triplicate culture plates) was harvested as mentioned above and total RNA was extracted using TRIzol reagent (Invitrogen, Carlsbad, Calif., USA) following a standard laboratory protocol. The RNA purity and concentrations were determined. Then 2 μg of total RNA was reversely transcribed to single-stranded cDNA using Oligo(dT)12-18 primer (Invitrogen, Carlsbad, Calif., USA) with M-MLV reverse transcriptase (Promega, Madison, Wis., USA). For PCR reaction, 4 μl of cDNA was reacted with 20 pmol each of the forward and reverse primers (Bioneer Corporation, Seoul, South Korea), and GoTaq® Green Master Mix […] containing PCR buffer, 25 mM magnesium chloride, 10 mM dNTP mix and Taq enzyme (Promega, Madison, Wis., USA), and amplified. […] The molecular sizes of the amplified products were determined by comparison with the molecular weight marker (100 by DNAladder; Promega, Madison, Wis., USA) run parallel with the PCR products. The densities of mRNA bands were analyzed by Molecular Analyst™, version 1.4.1 (Bio-Rad, Hercules, Calif., USA).
# [2] = test system: PrEC cell line; test: Apoptotic indices by DAPI staining, confocal microscopy; conditions: PrEC, 24, 48 and 72 h
# Method: (§1) The Annexin-V-FLUOS Staining Kit (Roche Diagnostics GmbH, Mannheim, Germany) was used for the detection and quantification of the apoptotic cells. This kit uses a dual-staining protocol in which the apoptotic cells are stained with annexin-V (green fluorescence) and the necrotic cells are stained with propidium iodide (PI, red fluorescence). Briefly, DU145 cell line was grown at a density of 1×10^6 cells in triplicate culture plates and then treated with D-allose (0, 20 and 40 mM) for 48 and 72 h. The cells were treated with trypsin and harvested with PBS and processed for labeling with annexin-V and PI by the use of the kit according to the manufacturer's protocol. The fluorescence was measured by flow cytometric analysis, performed on a FACSCalibur (Becton Dickinson, San Jose, Calif., USA) using 488 nm excitation and a 515 nm band pass filter for fluorescein detection and a filter [600 nm for PI detection (FL1: Annexin-V-FLUOS; FL2: PI). Further, apoptotic indices were measured by analysis of fragmented or scattered nuclei and condensed chromosome as the stringent morphological criteria of apoptosis, detectable by confocal microscopy on cells stained with DNA-intercalating dye […] (DAPI). For this purpose, DU145 and PrEC cell lines were exposed to 0, 20 and 40 mM of D-allose for up to 72 h, stained with DAPI (1 μg/ml in methanol), mounted with Prolong Antifade reagent (Molecular Probes, Eugene, Oreg., USA), and images were acquired by use of a confocal laser scanning microscope (Fluoview FV 1000, Olympus, Japan). The numbers of apoptotic nuclei per 100 cells were counted from the five high power fields/slide and apoptotic indices were expressed as a percentage of the untreated controls in each cell line, considering the value as 100%. DU145 cell line was also treated with 0-40 mM of D-glucose for determination of apoptotic indices as mentioned above.
# [3] = test system: DU145 cell line; test: as above; conditions: DU145, 24, 48 and 72 h
# Method: as §1
# [4] = test system: PARP; test: Western blot analysis of PARP protein in DU145; conditions: DU145, 0, 20 and 40 mM, 72 h
# Method: After 0, 20 and 40 mM of D-allose treatments for 72 h, DU145 cell line (1×10^6 cells in triplicate culture plates) was harvested into cell lysis buffer (Cell Signaling, Danvers, Mass., USA) supplemented with 1 mM PMSF. The cells were then sonicated, centrifuged and protein concentration was measured by Bradford assay with the Bio-Rad protein assay solution using bovine serum albumin (BSA) as standard. Proteins (30 μg) were separated on a 12.5% SDS-PAGE under reducing conditions and transferred onto a PVDF membrane (Santa Cruz Biotechnology, Santa Cruz, Calif., USA). Prestained protein marker, broad range: 6-175 kDa (New England Biolabs Inc., Ipswich, Mass., USA) run in parallel for detection of the molecular weights of the proteins. Membrane was blocked with 5% (w/v) skimmed milk in order to reduce non-specific binding and immunoblotting was performed using rabbit derived anti-Bcl-2, anti-Bax, anti-Caspase 3 and anti-PARP antibodies (1:500; Santa Cruz Biotechnology, Santa Cruz, Calif., USA). […] Membrane was probed with a goat derived horseradish peroxidase-conjugated anti-rabbit IgG (1:1000; Santa Cruz Biotechnology, Santa Cruz, Calif., USA), and proteins were detected by the enhanced chemiluminescence (ECL) detection system according to the vendor's protocol (Amersham Biosciences, Piscataway, N.J., USA) followed by X-ray exposure. […]
smiles,measurement,setting,value
O=C[C@H](O)[C@H](O)[C@H](O)[C@H](O)CO [D-allose],Bax mRNA expression,[1],opposite effect
same,"programmed cell death (apoptotic indices, DAPI staining)",[2],very negligible effect
same,"programmed cell death (apoptotic indices, DAPI staining)",[3],significant dose- and time-dependent programmed cell death
same,cleaved PARP product,[4],concomitant increase
same,full length PARP protein expression,[4],remarkable dose-dependent decrease
